“And” between values parts separate entries of the source, which are not always exact repeats. Equal values may be shown once. Inconclusive results and toxic doses are left out. Numbered stars: 1 amine (or outer) side, 2 acyl side, 3 side chain; on linkers, the order of the positions; unused ones are H or OH. Bridge positions count the residues as written; N and C are the ends. Square brackets hold non-standard residues; d marks the D form. Peptide text beside a SMILES is read from it. I, II: the chains in the order shown. Actinocin(1to9) = Cc1c2oc3c(C)ccc(C(=O)[*:2])c3nc-2c(C(=O)[*:1])c(N)c1=O; Hyp = O=C(O)[CH]1C[CH](O)CN1; NMeV = CN[CH](C(=O)O)C(C)C; Sar = CNCC(=O)O
System: BDF1 mice, B16 melanoma ip, median survival T/C
Experiment: NCI In Vivo Anticancer Drug Screen. Data for tumor model B16 Melanoma (intraperitoneal) in B6D2F1 (BDF1) mice
Settings: endpoint: median survival time, higher = longer survival
Outline: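 Antitumor activity is assessed in mice bearing a transplanted tumor, with survival or tumor size compared against vehicle-dosed controls and expressed as T/C.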

[1] = dose: 12.5 mg/kg/injection, schedule: Q01DX009 (ip), vehicle: saline with Tween-80
[2] = dose: 25.0 mg/kg/injection, schedule: Q01DX009 (ip), vehicle: saline with Tween-80
[3] = dose: 50.0 mg/kg/injection, schedule: Q01DX009 (ip), vehicle: saline with Tween-80
[4] = dose: 200.0 mg/kg/injection, schedule: Q01DX009 (ip), vehicle: Klucel (hydroxypropylcellulose) (HPC)
[5] = dose: 100.0 mg/kg/injection, schedule: Q01DX009 (ip), vehicle: saline
[6] = dose: 200.0 mg/kg/injection, schedule: Q01DX009 (ip), vehicle: saline
[7] = dose: 100.0 mg/kg/injection, schedule: Q01DX009 (ip), vehicle: saline with Tween-80
[8] = dose: 200.0 mg/kg/injection, schedule: Q01DX009 (ip), vehicle: saline with Tween-80
[9] = dose: 400.0 mg/kg/injection, schedule: Q01DX009 (ip), vehicle: saline with Tween-80
[10] = dose: 6.25 mg/kg/injection, schedule: Q01DX009 (ip), vehicle: saline
[11] = dose: 12.5 mg/kg/injection, schedule: Q01DX009 (ip), vehicle: saline
[12] = dose: 25.0 mg/kg/injection, schedule: Q01DX009 (ip), vehicle: saline
[13] = dose: 100.0 mg/kg/injection, schedule: Q04DX003 (ip), vehicle: Klucel (hydroxypropylcellulose) (HPC)
[14] = dose: 200.0 mg/kg/injection, schedule: Q04DX003 (ip), vehicle: Klucel (hydroxypropylcellulose) (HPC)
[15] = dose: 400.0 mg/kg/injection, schedule: Q04DX003 (ip), vehicle: Klucel (hydroxypropylcellulose) (HPC)
[16] = dose: 6.25 mg/kg/injection, schedule: Q01DX009 (ip), vehicle: carboxymethylcellulose (CMC)
[17] = dose: 12.5 mg/kg/injection, schedule: Q01DX009 (ip), vehicle: carboxymethylcellulose (CMC)
[18] = dose: 25.0 mg/kg/injection, schedule: Q01DX009 (ip), vehicle: carboxymethylcellulose (CMC)
[19] = dose: 25.0 mg/kg/injection, schedule: Q04DX003 (ip), vehicle: saline with Tween-80
[20] = dose: 50.0 mg/kg/injection, schedule: Q04DX003 (ip), vehicle: saline with Tween-80
[21] = dose: 100.0 mg/kg/injection, schedule: Q04DX003 (ip), vehicle: saline with Tween-80

## Cc1c2oc3c(C)ccc(C(=O)NC4C(=O)NC(C(C)C)C(=O)N5CCCC5C(=O)N(C)CC(=O)N(C)C(C(C)C)C(=O)OC4C)c3nc-2c(C(=O)NC2C(=O)NC(C(C)C)C(=O)N3CC(O)CC3C(=O)N(C)CC(=O)N(C)C(C(C)C)C(=O)OC2C)c(N)c1=O (stereo not drawn) (I: TV[Hyp][Sar][NMeV] / II: TVP[Sar][NMeV]; ester I:1-I:C, II:1-II:C; linker I:N-II:N via Actinocin(1to9); configuration not given here)
dose: 100.0 micrograms/kg/injection, schedule: Q01DX009 (ip), vehicle: saline + alcohol
  T/C: 152 % of control
dose: 150.0 micrograms/kg/injection, schedule: Q01DX009 (ip), vehicle: saline + alcohol
  T/C: 158 % of control
dose: 225.0 micrograms/kg/injection, schedule: Q04DX003 (ip), vehicle: saline + alcohol
  T/C: 120 % of control
dose: 450.0 micrograms/kg/injection, schedule: Q04DX003 (ip), vehicle: saline + alcohol
  T/C: 121 % of control
dose: 600.0 micrograms/kg/injection, schedule: Q04DX003 (ip), vehicle: saline + alcohol
  T/C: 95 % of control
dose: 900.0 micrograms/kg/injection, schedule: Q04DX003 (ip), vehicle: saline + alcohol
  T/C: 88 % of control

## O=C(Nc1ccccc1F)C(c1ccccc1)c1ccccc1
[1]
  T/C: 101 % of control
[2]
  T/C: 95 % of control
[3]
  T/C: 95 % of control
[4]
  T/C: 86 % of control

## CCc1cc2c(cc1C(=O)CBr)C(C)(C)CCC2(C)C
dose: 3.13 mg/kg/injection, schedule: Q01DX009 (ip), vehicle: saline with Tween-80
  T/C: 100 % of control
dose: 6.25 mg/kg/injection, schedule: Q01DX009 (ip), vehicle: saline with Tween-80
  T/C: 94 % of control
[1]
  T/C: 92 % of control and 99 % of control
[2]
  T/C: 94 % of control

## COC(=O)[C@H]1[C@H]2C[C@@H]3c4[nH]c5ccccc5c4CCN3C[C@H]2C[C@@H](OC(=O)c2cc(OC)c(OC)c(OC)c2)[C@@H]1OC
dose: 3.0 micrograms/kg/injection, schedule: Q01DX009 (ip), vehicle: saline
  T/C: 90 % of control
dose: 6.0 micrograms/kg/injection, schedule: Q01DX009 (ip), vehicle: saline
  T/C: 98 % of control
dose: 13.0 micrograms/kg/injection, schedule: Q01DX009 (ip), vehicle: saline
  T/C: 95 % of control
dose: 27.0 micrograms/kg/injection, schedule: Q01DX009 (ip), vehicle: saline
  T/C: 95 % of control
dose: 55.0 micrograms/kg/injection, schedule: Q01DX009 (ip), vehicle: saline
  T/C: 86 % of control

## CCCCCCCCCCCCCCCCCCNC(=S)N/N=C/c1ccc(Cl)cc1Cl
[5]
  T/C: 87 % of control
[6]
  T/C: 95 % of control

## Cc1cc(=O)[nH]c(Nc2ccccc2)n1
[7]
  T/C: 105 % of control
[8]
  T/C: 92 % of control
[9]
  T/C: 102 % of control

## CNCCCN(C)CCCNC
[10]
  T/C: 121 % of control
[11]
  T/C: 109 % of control
[12]
  T/C: 96 % of control and 111 % of control

## COc1ccc2c(c1)CN(S(=O)(=O)c1ccc(C)cc1)C=CC2=O
[13]
  T/C: 108 % of control
[14]
  T/C: 103 % of control
[15]
  T/C: 97 % of control

## O=S(=O)(Nc1ccc(F)cc1)c1ccccc1
dose: 100.0 mg/kg/injection, schedule: Q01DX009 (ip), vehicle: Klucel (hydroxypropylcellulose) (HPC)
  T/C: 96 % of control
[4]
  T/C: 99 % of control
dose: 400.0 mg/kg/injection, schedule: Q01DX009 (ip), vehicle: Klucel (hydroxypropylcellulose) (HPC)
  T/C: 97 % of control

## COc1ccc(/C=C/c2nc3ccccc3nc2/C=C/c2ccc(OC)c(OC)c2)cc1OC
[16]
  T/C: 99 % of control
[17]
  T/C: 92 % of control
[18]
  T/C: 89 % of control

## CC(=O)Nc1nc(=O)n(CC(=O)c2cccs2)cc1F
[16]
  T/C: 100 % of control
[17]
  T/C: 99 % of control
[18]
  T/C: 94 % of control
dose: 50.0 mg/kg/injection, schedule: Q01DX009 (ip), vehicle: Klucel (hydroxypropylcellulose) (HPC)
  T/C: 96 % of control
dose: 50.0 mg/kg/injection, schedule: Q01DX009 (ip), vehicle: carboxymethylcellulose (CMC)
  T/C: 102 % of control

## CCC(=O)Oc1ccc(OCc2ccccc2)cc1
[13]
  T/C: 95 % of control
[14]
  T/C: 86 % of control
[15]
  T/C: 97 % of control

## COC(=O)c1cc(I)ccc1O
[7]
  T/C: 102 % of control
[8]
  T/C: 104 % of control
[9]
  T/C: 102 % of control

## C[C@]12CCC(=O)C=C1CC[C@@H]1[C@@H]2[C@@H](O)C[C@@]2(C)[C@H]1CC[C@]2(O)C(=O)CO
dose: 40.0 mg/kg/injection, schedule: Q02DX009 (ip), vehicle: Klucel (hydroxypropylcellulose) (HPC)
  T/C: 87 % of control
dose: 80.0 mg/kg/injection, schedule: Q02DX009 (ip), vehicle: Klucel (hydroxypropylcellulose) (HPC)
  T/C: 102 % of control
dose: 160.0 mg/kg/injection, schedule: Q02DX009 (ip), vehicle: Klucel (hydroxypropylcellulose) (HPC)
  T/C: 92 % of control

## Cc1nc2[nH]c(=O)[nH]c(=O)c2[nH]1
[1]
  T/C: 111 % of control
dose: 12.5 mg/kg/injection, schedule: Q04DX003 (ip), vehicle: saline with Tween-80
  T/C: 105 % of control
[2]
  T/C: 100 % of control
[19]
  T/C: 108 % of control
[3]
  T/C: 102 % of control
[20]
  T/C: 105 % of control

## Cc1cc2ccc(OC(=O)c3ccc(N=C(N)N)cc3)cc2oc1=O
[1]
  T/C: 91 % of control
[2]
  T/C: 100 % of control
[7]
  T/C: 86 % of control
[21]
  T/C: 92 % of control
dose: 200.0 mg/kg/injection, schedule: Q04DX003 (ip), vehicle: saline with Tween-80
  T/C: 95 % of control
dose: 400.0 mg/kg/injection, schedule: Q04DX003 (ip), vehicle: saline with Tween-80
  T/C: 95 % of control

## C/C=C1\C[C@@H]2C(OC)Nc3cc(O)c(OC)cc3C(=O)N2C1 (stereo partly drawn)
dose: 0.03 mg/kg/injection, schedule: Q01DX009 (ip), vehicle: saline
  T/C: 100 % of control
dose: 0.06 mg/kg/injection, schedule: Q01DX009 (ip), vehicle: saline
  T/C: 112 % of control
dose: 0.12 mg/kg/injection, schedule: Q01DX009 (ip), vehicle: saline
  T/C: 115 % of control
dose: 0.12 mg/kg/injection, schedule: Q01DX009 (ip), vehicle: suspension in saline
  T/C: 105 % of control
dose: 0.25 mg/kg/injection, schedule: Q01DX009 (ip), vehicle: saline
  T/C: 112 % of control
dose: 0.25 mg/kg/injection, schedule: Q01DX009 (ip), vehicle: suspension in saline
  T/C: 96 % of control
dose: 0.5 mg/kg/injection, schedule: Q01DX009 (ip), vehicle: saline
  T/C: 115 % of control
dose: 0.5 mg/kg/injection, schedule: Q01DX009 (ip), vehicle: suspension in saline
  T/C: 96 % of control

## Cn1c(CCCC(=O)O)nc2cc(N(CCCl)CCCl)ccc21
dose: 1.0 mg/kg/injection, schedule: Q01DX009 (ip), vehicle: saline
  T/C: 115 % of control
dose: 2.0 mg/kg/injection, schedule: Q01DX009 (ip), vehicle: saline
  T/C: 94 % of control
dose: 2.5 mg/kg/injection, schedule: Q01DX009 (ip), vehicle: saline
  T/C: 157 % of control
dose: 4.0 mg/kg/injection, schedule: Q01DX009 (ip), vehicle: saline
  T/C: 103 % of control
dose: 5.0 mg/kg/injection, schedule: Q01DX009 (ip), vehicle: saline
  T/C: 152 % of control
dose: 6.0 mg/kg/injection, schedule: Q01DX009 (ip), vehicle: saline
  T/C: 101 % of control
dose: 8.0 mg/kg/injection, schedule: Q01DX009 (ip), vehicle: saline
  T/C: 159 % of control
dose: 10.0 mg/kg/injection, schedule: Q01DX009 (ip), vehicle: saline
  T/C: 157 % of control and 186 % of control
dose: 12.0 mg/kg/injection, schedule: Q01DX009 (ip), vehicle: saline
  T/C: 115 % of control
dose: 20.0 mg/kg/injection, schedule: Q01DX009 (ip), vehicle: saline
  T/C: 89 % of control

## Nc1ccccc1O
dose: 50.0 mg/kg/injection, schedule: Q01DX009 (ip), vehicle: saline
  T/C: 93 % of control and 99 % of control
[5]
  T/C: 101 % of control and 93 % of control
[6]
  T/C: 91 % of control and 94 % of control

## C1CNC2NCCNC2N1 (stereo not drawn)
[10]
  T/C: 114 % of control
[11]
  T/C: 120 % of control
[12]
  T/C: 105 % of control
[5]
  T/C: 109 % of control

## Nc1cccc(NC=O)c1
[1]
  T/C: 102 % of control
[2]
  T/C: 97 % of control
[3]
  T/C: 97 % of control

## N#CC1CS(=O)(=O)C1
[19]
  T/C: 104 % of control
[20]
  T/C: 98 % of control
[21]
  T/C: 99 % of control and 113 % of control

— PubChem BioAssay AID192 (DTP/NCI, 2004)
